Test results reported in patent publication US10730870B2, “Compounds and methods for the enhanced degradation of targeted proteins” (Arvinas, Inc., priority 2015, dated 2020).

Biological target: VHL (Homo sapiens (Human), UniProt P40337)
Test: VHL fluorescence polarization (FP) competition assay
Type: binding

Compound | IC50 (0.25% in DMSO) | IC50 (1% in DMSO) | IC50 (10% in DMSO) | VHL FP Assay IC50 (1% in DMSO) | VHL FP Assay IC50 (10% in DMSO)
CC(C)[C@@H](C(=O)N1C[C@H](O)C[C@H]1C(=O)NCc1ccc(C2(O)COC2)cc1)N1Cc2ccccc2C1=O [Example 127, (2S,4R)-4-hydroxy-N-(4-(3-hydroxyoxetan-3-yl)benzyl)-1-((S)-3-methyl-2-(1-oxoisoindolin-2-yl)butanoyl)pyrrolidine-2-carboxamide] | – | – | 406 µM | – | –
CCC1(C(=O)NCc2ccc(-c3scnc3C)cc2)C[C@@H](O)CN1C(=O)c1cccc(OC)c1 (stereo partly drawn) [Example 67, (4R)-2-ethyl-4-hydroxy-1-(3-methoxybenzoyl)-N-(4-(4-methylthiazol-5-yl)benzyl)pyrrolidine-2-carboxamide] | – | – | – | Not Active | Not Active
Cc1ncoc1-c1ccc(CNC(=O)[C@@H]2C[C@@H](O)CN2C(=O)[C@H](C(C)C)N2Cc3ccccc3C2=O)cc1 [Example 133, (2S,4R)-4-hydroxy-1-((S)-3-methyl-2-(1-oxoisoindolin-2-yl)butanoyl)-N-(4-(4-methyloxazol-5-yl)benzyl)pyrrolidine-2-carboxamide] | – | 1.64 µM | – | – | –
CC(=O)N[C@H](C(=O)N1C[C@H](O)C[C@H]1C(=O)NCc1ccc(-c2scnc2C)cc1)C(C)C [Example 69, (2S,4R)-1-((S)-2-acetamido-3-methylbutanoyl)-4-hydroxy-N-(4-(4-methylthiazol-5-yl)benzyl)pyrrolidine-2-carboxamide] | – | 1.43 µM | 4.28 µM | – | –
Cc1ncsc1-c1ccc(CNC(=O)[C@@H]2[C@@H](O)[C@@H](O)CN2C(=O)[C@H](C(C)C)N2Cc3ccccc3C2=O)cc1 [Example 147, (2S,3R,4S)-3,4-dihydroxy-1-((S)-3-methyl-2-(1-oxoisoindolin-2-yl)butanoyl)-N-(4-(4-methylthiazol-5-yl)benzyl)pyrrolidine-2-carboxamide] | – | 12.4 µM | – | – | –
Cc1ncsc1-c1ccc(CNC(=O)C2(C)C[C@@H](O)CN2C(=O)[C@H](C(C)C)N2Cc3ccccc3C2=O)cc1 (stereo partly drawn) [Example 132] | – | 1.69 µM | – | – | –
Cc1ncsc1-c1ccc(CNC(=O)[C@@H]2C[C@@H](O)CN2c2cccc(Oc3ccccc3)c2)cc1 [Example 109, (2S,4R)-4-hydroxy-N-(4-(4-methylthiazol-5-yl)benzyl)-1-(3-phenoxyphenyl)pyrrolidine-2-carboxamide] | – | 6.67 µM | – | – | –
CC[C@H](C)[C@H](NC(=O)CCC(C)C)C(=O)N1C[C@H](O)C[C@H]1C(=O)NCc1ccc(-c2scnc2C)cc1 [Example 31, (2S,4R)-4-hydroxy-1-((2S,3S)-3-methyl-2-(4-methylpentanamido)pentanoyl)-N-(4-(4-methylthiazol-5-yl)benzyl)pyrrolidine-2-carboxamide] | 3.22 µM | 1.28 µM | 2.11 µM | – | –
COc1cccc(C(=O)N2C[C@H](O)C[C@H]2C(=O)NCc2ccc(-c3scnc3C)cc2)c1 [Example 63, (2S,4R)-4-hydroxy-1-(3-methoxybenzoyl)-N-(4-(4-methylthiazol-5-yl)benzyl)pyrrolidine-2-carboxamide] | – | 58.4 µM | 53 µM | – | –
COc1ccc(CCC(=O)N[C@H](C(=O)N2C[C@H](O)C[C@H]2C(=O)NCc2ccc(-c3scnc3C)cc2)C(C)(C)C)cc1 [Example 76, (2S,4R)-4-hydroxy-1-((S)-2-(3-(4-methoxyphenyl)propanamido)-3,3-dimethylbutanoyl)-N-(4-(4-methylthiazol-5-yl)benzyl)pyrrolidine-2-carboxamide] | – | 0.169 µM | – | – | –
Cc1ncsc1-c1ccc(CNC(=O)[C@H]2C[C@H](O)CN2C(=O)[C@@H](CSSC[C@H](NC(=O)CCC(C)C)C(=O)N2C[C@H](O)C[C@H]2C(=O)NCc2ccc(-c3scnc3C)cc2)NC(=O)CCC(C)C)cc1 [Example 60, (2S,4R)-4-hydroxy-1-((R)-3-(((S)-3-((2R,4S)-4-hydroxy-2-(4-(4-methylthiazol-5-yl)benzylcarbamoyl)pyrrolidin-1-yl)-2-(4-methylpentanamido)-3-oxopropyl)disulfanyl)-2-(4-methylpentanamido)propanoyl)-N-(4-(4-methylthiazol-5-yl)benzyl)pyrrolidine-2-carboxamide] | – | 1.45 µM | 0.293 µM | – | –
CCC(C(=O)N1C[C@H](O)C[C@H]1C(=O)NCc1ccc(-c2scnc2C)cc1)c1cc(C)no1 (stereo partly drawn) [Example 143, (2S,4R)-4-hydroxy-1-(2-(3-methylisoxazol-5-yl)butanoyl)-N-(4-(4-methylthiazol-5-yl)benzyl)pyrrolidine-2-carboxamide] | – | 0.964 µM | – | – | –
COc1ccccc1CCC(=O)N[C@H](C(=O)N1C[C@H](O)C[C@H]1C(=O)NCc1ccc(-c2scnc2C)cc1)C(C)(C)C [Example 83, (2S,4R)-4-hydroxy-1-((S)-2-(3-(2-methoxyphenyl)propanamido)-3,3-dimethylbutanoyl)-N-(4-(4-methylthiazol-5-yl)benzyl)pyrrolidine-2-carboxamide] | – | 0.626 µM | 0.32 µM | – | –
Cc1ncsc1-c1ccc(CNC(=O)[C@@H]2C[C@@H](O)CN2C(=O)[C@@H](NC(=O)CCc2ccccc2)C(C)(C)C)cc1 [Example 44, (2S,4R)-1-((S)-3,3-dimethyl-2-(3-phenylpropanamido)butanoyl)-4-hydroxy-N-(4-(4-methylthiazol-5-yl)benzyl)pyrrolidine-2-carboxamide] | – | 0.385 µM | 0.465 µM | – | –
Cc1ncsc1-c1ccc(CNC(=O)[C@@H]2C[C@@H](O)CN2C(=O)[C@@H](NC(=O)C(C)(C)C)C(C)(C)C)cc1 [Example 14, (2S,4R)-1-((S)-3,3-dimethyl-2-pivalamidobutanoyl)-4-hydroxy-N-(4-(4-methylthiazol-5-yl)benzyl)pyrrolidine-2-carboxamide] | 7.15 µM | 4.63 µM | 13.3 µM | – | –
Cc1ncsc1-c1ccc(CNC(=O)[C@@H]2C[C@@H](O)CN2C(=O)c2ccccc2)cc1 [Example 64, (2S,4R)-1-benzoyl-4-hydroxy-N-(4-(4-methylthiazol-5-yl)benzyl)pyrrolidine-2-carboxamide] | – | 16.8 µM | 30.5 µM | – | –
CC(C)[C@@H](C(=O)N1C[C@H](O)C[C@H]1C(=O)N[C@@H](C)c1ccc(Br)cc1)N1Cc2ccccc2C1=O [Example 24, (2S,4R)—N—((S)-1-(4-bromophenyl)ethyl)-4-hydroxy-1-((S)-3-methyl-2-(1-oxoisoindolin-2-yl)butanoyl)pyrrolidine-2-carboxamide] | 1.39 µM | 8.65 µM | 28 µM | – | –
CC(C)[C@@H](C(=O)N1C[C@H](O)C[C@H]1C(=O)NCc1ccc(C2=CCCC2)cc1)N1Cc2ccccc2C1=O [Example 116, (2S,4R)—N-(4-cyclopentenylbenzyl)-4-hydroxy-1-((S)-3-methyl-2-(1-oxoisoindolin-2-yl)butanoyl)pyrrolidine-2-carboxamide] | – | 3.9 µM | – | – | –

The next lines start with the values.

IC50 (0.25% in DMSO) | IC50 (1% in DMSO) | IC50 (10% in DMSO) | VHL FP Assay IC50 (1% in DMSO) | VHL FP Assay IC50 (10% in DMSO) | Compound
2.95 µM | 0.265 µM | 1.8 µM | – | – | Cc1ncsc1-c1ccc(CNC(=O)[C@@H]2C[C@@H](O)CN2C(=O)[C@H](C(C)C)N2Cc3cc(F)ccc3C2=O)cc1 [Example 16, (2S,4R)-1-((S)-2-(5-fluoro-1-oxoisoindolin-2-yl)-3-methylbutanoyl)-4-hydroxy-N-(4-(4-methylthiazol-5-yl)benzyl)pyrrolidine-2-carboxamide]
2.12 µM | 0.66 µM | 1.18 µM | – | – | Cc1ncsc1-c1ccc(CNC(=O)[C@@H]2C[C@@H](O)CN2C(=O)[C@H](C(C)C)N2Cc3cc(C#N)ccc3C2=O)cc1 [Example 34, (2S,4R)-1-((S)-2-(5-cyano-1-oxoisoindolin-2-yl)-3-methylbutanoyl)-4-hydroxy-N-(4-(4-methylthiazol-5-yl)benzyl)pyrrolidine-2-carboxamide]
– | 0.45 µM | 0.264 µM | – | – | Cc1ncsc1-c1ccc(CNC(=O)[C@@H]2C[C@@H](O)CN2C(=O)[C@H](C(C)C)N2Cc3ccc(Cl)cc3C2=O)cc1 [Example 74, (2S,4R)-1-((S)-2-(6-chloro-1-oxoisoindolin-2-yl)-3-methylbutanoyl)-4-hydroxy-N-(4-(4-methylthiazol-5-yl)benzyl)pyrrolidine-2-carboxamide]
– | 0.972 µM | 0.668 µM | – | – | Cc1ncsc1-c1ccc(CNC(=O)[C@@H]2C[C@@H](O)CN2C(=O)[C@H](C(C)C)N2Cc3c(Cl)cccc3C2=O)cc1 [Example 68]
2.86 µM | 0.732 µM | 0.533 µM | – | – | CC(C)[C@@H](C(=O)N1C[C@H](O)C[C@H]1C(=O)NCc1ccc(-c2scnc2C2CC2)cc1)N1Cc2ccccc2C1=O [Example 2, (2S,4R)—N-(4-(4-cyclopropylthiazol-5-yl)benzyl)-4-hydroxy-1-((S)-3-methyl-2-(1-oxoisoindolin-2-yl)butanoyl)pyrrolidine-2-carboxamide]
– | – | – | Not Active | Not Active | Cc1ncsc1-c1ccc(CNC(=O)[C@@H]2CC(=O)CN2C(=O)[C@H](C(C)C)N2Cc3ccccc3C2=O)cc1 [Example 61, (S)-1-((S)-3-methyl-2-(1-oxoisoindolin-2-yl)butanoyl)-N-(4-(4-methylthiazol-5-yl)benzyl)-4-oxopyrrolidine-2-carboxamide]
– | 1.64 µM | 1.58 µM | – | – | Cc1ncsc1-c1ccc(CNC(=O)[C@@H]2C[C@@H](O)CN2C(=O)[C@H](C(C)C)N2Cc3ccccc3C2=O)c(F)c1 [Example 82, (2S,4R)—N-(2-fluoro-4-(4-methylthiazol-5-yl)benzyl)-4-hydroxy-1-((S)-3-methyl-2-(1-oxoisoindolin-2-yl)butanoyl)pyrrolidine-2-carboxamide]
– | 0.418 µM | – | – | – | Cc1ncsc1-c1ccc(CNC(=O)[C@@H]2C[C@@H](O)CN2C(=O)[C@H](C(C)C)N2Cc3ncccc3C2=O)cc1 [Example 99, (2S,4R)-4-hydroxy-1-((S)-3-methyl-2-(5-oxo-5H-pyrrolo[3,4-b]pyridin-6(7H)-yl)butanoyl)-N-(4-(4-methylthiazol-5-yl)benzyl)pyrrolidine-2-carboxamide]
– | 0.474 µM | 1.03 µM | – | – | COCC#Cc1ccc2c(c1)CN([C@H](C(=O)N1C[C@H](O)C[C@H]1C(=O)NCc1ccc(-c3scnc3C)cc1)C(C)C)C2=O [Example 53, (2S,4R)-4-hydroxy-1-((S)-2-(5-(3-methoxyprop-1-ynyl)-1-oxoisoindolin-2-yl)-3-methylbutanoyl)-N-(4-(4-methylthiazol-5-yl)benzyl)pyrrolidine-2-carboxamide]
